Experimental data: the supplement of paper PMC10949913

What was measured:
Experiment in all cases: area under concentration-response curve (viability) (AUC (a.u.)); higher = less active
Conditions in all cases: 48 h
[1] = test system: CU-ACC1
Summary of the method: (§1)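 AC50 and area under the curve values derive from fitted concentration-response curves, restricted to inhibitory or non-responding curve classes. The curves came from three adrenocortical carcinoma cell lines in 1,536-well plates, each receiving 23 nL of every library compound at 11 concentrations. Viability was read by CellTiter-Glo luminescence after 48 h, normalised per plate to vehicle and empty-well controls.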

[2] = test system: NCI-H295R
Summary of the method: as §1

[3] = test system: CU-ACC2
Summary of the method: as §1

CC(C)OC(=O)/C1=C/N(CC(C)(C)C2=C1[NH]C3=CC=CC=C23)C(=O)C4=CC=C(F)C(=C4)F
area under concentration-response curve [1]: 454 | area under concentration-response curve [2]: 529 | area under concentration-response curve [3]: 555

Cc1nnc(C(C)C)n1C1CC2CCC(C1)N2CCC(NC(=O)C1CCC(F)(F)CC1)c1ccccc1 (centres undefined)
area under concentration-response curve [1]: 478 | area under concentration-response curve [2]: 451 | area under concentration-response curve [3]: 498

O=C1NC(=O)/C(=C\c2ccc(-c3ccc(F)cc3)o2)S1
area under concentration-response curve [1]: 471 | area under concentration-response curve [2]: 522 | area under concentration-response curve [3]: 572

Cc1[nH]c(/C=C2\C(=O)Nc3ccc(F)cc32)c(C)c1C(=O)NC[C@H](O)CN1CCOCC1
area under concentration-response curve [1]: 525 | area under concentration-response curve [2]: 539 | area under concentration-response curve [3]: 601

NNc1nncc2ccccc12
area under concentration-response curve [1]: 525 | area under concentration-response curve [2]: 534 | area under concentration-response curve [3]: 568

CNC(=O)c1ccc(N2C(=S)N(c3ccc(C#N)c(C(F)(F)F)c3)C(=O)C23CCC3)cc1F
area under concentration-response curve [1]: 488 | area under concentration-response curve [2]: 534 | area under concentration-response curve [3]: 500

OC(=O)\C1=C\N(C2=CC=C(F)C=C2)C3=C(C=C(F)C(=C3)N4CCNCC4)C1=O
area under concentration-response curve [1]: 485 | area under concentration-response curve [2]: 497 | area under concentration-response curve [3]: 549

NC(=O)c1ncn([C@@H]2O[C@H](CO)[C@@H](O)[C@H]2O)n1
area under concentration-response curve [1]: 511 | area under concentration-response curve [2]: 530 | area under concentration-response curve [3]: 504

COc1cc2ncnc(-n3nc(-c4ccccn4)nc3N)c2cc1OC
area under concentration-response curve [1]: 458 | area under concentration-response curve [2]: 489 | area under concentration-response curve [3]: 551

Cc1noc2c1-c1ccccc1C(c1ccc(Cl)cc1)=N[C@H]2CC(N)=O
area under concentration-response curve [1]: 495 | area under concentration-response curve [2]: 466 | area under concentration-response curve [3]: 568

COc1ccc(Oc2cc(NCCC(F)(F)F)c3ncc(-c4ccc(C(=O)NC5CC5)c(C)c4)n3n2)c(F)c1F
area under concentration-response curve [1]: 487 | area under concentration-response curve [2]: 501 | area under concentration-response curve [3]: 459

COc1cc(C[C@@H](CO)[C@H](CO)Cc2ccc(O)c(OC)c2)ccc1O
area under concentration-response curve [1]: 534 | area under concentration-response curve [2]: 517 | area under concentration-response curve [3]: 575

COC12C(COC(N)=O)\C3=C(/N1CC4C2N4C)C(=O)C(=C(N)/C3=O)\C (centres undefined)
area under concentration-response curve [1]: 506 | area under concentration-response curve [2]: 507 | area under concentration-response curve [3]: 544

OC(=O)\C1=C\N(C2CC2)C3=CC(=C(F)C=C3C1=O)N4CCNCC4
area under concentration-response curve [1]: 571 | area under concentration-response curve [2]: 561 | area under concentration-response curve [3]: 693

C1Cc2[nH]nc(-c3nn[nH]n3)c2C1
area under concentration-response curve [1]: 544 | area under concentration-response curve [2]: 514 | area under concentration-response curve [3]: 624

Nc1ncnc2c1C(=O)N(c1ccc([C@H]3CC[C@H](CC(=O)O)CC3)cc1)CCO2
area under concentration-response curve [1]: 497 | area under concentration-response curve [2]: 509 | area under concentration-response curve [3]: 554

O=C(c1cncc(Br)c1)N1CCC(N2CCCC2)CC1
area under concentration-response curve [1]: 489 | area under concentration-response curve [2]: 528 | area under concentration-response curve [3]: 440

C[C@@H](CN1CC(=O)NC(=O)C1)N1CC(=O)NC(=O)C1
area under concentration-response curve [1]: 516 | area under concentration-response curve [2]: 478 | area under concentration-response curve [3]: 588

COC1=CC=C2[C@H]3CC[C@]4(C)[C@H](CC[C@H]4[C@@H]3CCC2=C1)NCCCCCCN5C(=O)\C=C/C5=O
area under concentration-response curve [1]: 496 | area under concentration-response curve [2]: 517 | area under concentration-response curve [3]: 460

O=C1\C=C(OC2=C(C=CC=C12)C3=CC=CC4=C3SC5=C4C=CC=C5)\N6CCOCC6
area under concentration-response curve [1]: 374 | area under concentration-response curve [2]: 497 | area under concentration-response curve [3]: 557

N=C1S/C(=C\c2ccc(-c3ccc4c(c3)C(=O)NC4=O)o2)C(=O)N1c1ccc(Br)cc1
area under concentration-response curve [1]: 563 | area under concentration-response curve [2]: 618 | area under concentration-response curve [3]: 675

NC/1=N/[C@]2(COC[C@H]2CS1)C3=CC(=CC=C3F)NC(=O)C4=NC=C(F)C=C4
area under concentration-response curve [1]: 499 | area under concentration-response curve [2]: 490 | area under concentration-response curve [3]: 569

CC[C@H](CC[C@@H](C)[C@H]1CC[C@H]2[C@@H]3C\C=C/4C[C@@H](O)CC[C@]4(C)[C@H]3CC[C@]12C)C(C)C
area under concentration-response curve [1]: 413 | area under concentration-response curve [2]: 421 | area under concentration-response curve [3]: 396

C#C[C@]1(O)CC[C@H]2[C@@H]3CCc4cc(O)ccc4[C@H]3CC[C@@]21C
area under concentration-response curve [1]: 525 | area under concentration-response curve [2]: 538 | area under concentration-response curve [3]: 611

CN[C@@H]1[C@@H](O)[C@@H](O[C@@H]2[C@@H](O)[C@H](O[C@H]3O[C@H](CN)[C@@H](O)[C@H](O)[C@H]3O)[C@@H](N)C[C@H]2NC(=O)C(O)CN)OC[C@]1(C)O.O=S(=O)(O)O (some centres undefined)
area under concentration-response curve [1]: 526 | area under concentration-response curve [2]: 553 | area under concentration-response curve [3]: 601

OC[C@H]1OCC(O1)[N@@]2C=CC(N)=NC2=O (some centres undefined)
area under concentration-response curve [1]: 423 | area under concentration-response curve [2]: 494 | area under concentration-response curve [3]: 451

C[C@H]1CN(C[C@@H](C)N1)C2=C(F)C3=C(C(=C2F)N)C(=O)\C(=C/N3C4CC4)C(O)=O
area under concentration-response curve [1]: 512 | area under concentration-response curve [2]: 537 | area under concentration-response curve [3]: 503

O=C(C1CCCCC1)N1CC(=O)N2CCc3ccccc3C2C1 (centres undefined)
area under concentration-response curve [1]: 555 | area under concentration-response curve [2]: 544 | area under concentration-response curve [3]: 631

OC[C@H]1O[C@H](C[C@@H]1O)N2\C=C(F)/C(=O)NC2=O
area under concentration-response curve [1]: 516 | area under concentration-response curve [2]: 497 | area under concentration-response curve [3]: 584

CCCN[S+](=O)([O-])Nc1ncnc(OCCOc2ncc(Br)cn2)c1-c1ccc(Br)cc1
area under concentration-response curve [1]: 381 | area under concentration-response curve [2]: 518 | area under concentration-response curve [3]: 567

COc1cc2c(cc1OC)CN(CCc1ccc(NC(=O)c3cccc4c(=O)c5cccc(OC)c5[nH]c34)cc1)CC2
area under concentration-response curve [1]: 575 | area under concentration-response curve [2]: 567 | area under concentration-response curve [3]: 621

Cc1ccc(/C=N/NC(=O)c2ccccc2Oc2ccccc2)o1
area under concentration-response curve [1]: 440 | area under concentration-response curve [2]: 421 | area under concentration-response curve [3]: 491

O=[N+]([O-])c1cnc(Sc2nnc(O)n2-c2ccc3c(c2)OCCO3)s1
area under concentration-response curve [1]: 529 | area under concentration-response curve [2]: 517 | area under concentration-response curve [3]: 611

O=C(/C=C/c1ccc(/C=C/C(=O)Nc2ccc(C3=NCCN3)cc2)cc1)Nc1ccc(C2=NCCN2)cc1
area under concentration-response curve [1]: 635 | area under concentration-response curve [2]: 613 | area under concentration-response curve [3]: 610

CCOc1cc(N)c(Cl)cc1C(=O)NCC1CN(Cc2ccc(F)cc2)CCO1 (centres undefined)
area under concentration-response curve [1]: 554 | area under concentration-response curve [2]: 542 | area under concentration-response curve [3]: 538

ClC\1=C(/CN2CCCC2=N)NC(=O)NC1=O
area under concentration-response curve [1]: 505 | area under concentration-response curve [2]: 486 | area under concentration-response curve [3]: 547

CCN1\C=C(C(O)=O)/C(=O)C2=C1C(=C(N3CCNC(C)C3)C(=C2)F)F (centres undefined)
area under concentration-response curve [1]: 577 | area under concentration-response curve [2]: 605 | area under concentration-response curve [3]: 674

Cn1c(Nc2ccc(C(F)(F)F)cc2)nc2cc(Oc3ccnc(-c4nc(C(F)(F)F)c[nH]4)c3)ccc21
area under concentration-response curve [1]: 369 | area under concentration-response curve [2]: 469 | area under concentration-response curve [3]: 508

O=C1N\C=N/C2=C1C=N[NH]2
area under concentration-response curve [1]: 522 | area under concentration-response curve [2]: 557 | area under concentration-response curve [3]: 531

O=C1CCC(N2C(=O)c3ccccc3C2=O)C(=O)N1 (centres undefined)
area under concentration-response curve [1]: 535 | area under concentration-response curve [2]: 538 | area under concentration-response curve [3]: 602

Cn1cc(-c2ccc(-c3cncc(Cl)c3N3CCC4(CCNC4=O)CC3)cc2)cn1
area under concentration-response curve [1]: 521 | area under concentration-response curve [2]: 514 | area under concentration-response curve [3]: 622

CC(C)(C)C#Cc1cc(N(C(=O)[C@H]2CC[C@H](C)CC2)[C@H]2CC[C@@H](O)CC2)c(C(=O)O)s1
area under concentration-response curve [1]: 497 | area under concentration-response curve [2]: 497 | area under concentration-response curve [3]: 478

O=C(NCC1CCCCN1)c1cc(OCC(F)(F)F)ccc1OCC(F)(F)F (centres undefined)
area under concentration-response curve [1]: 431 | area under concentration-response curve [2]: 525 | area under concentration-response curve [3]: 527

Nc1nc(OCc2ccccc2)c2nc[nH]c2n1
area under concentration-response curve [1]: 432 | area under concentration-response curve [2]: 441 | area under concentration-response curve [3]: 479

Cc1noc(C)c1-c1ccc(-c2cc(C(N)=O)c(NC(N)=O)s2)c(O[C@H]2CCNC2)c1
area under concentration-response curve [1]: 456 | area under concentration-response curve [2]: 447 | area under concentration-response curve [3]: 471

COC1=CC=C(C=C1O)C/2=C/C(=O)C3=C(O2)C=C(O[C@@H]4O[C@H](CO[C@@H]5O[C@@H](C)[C@H](O)[C@@H](O)[C@H]5O)[C@@H](O)[C@H](O)[C@H]4O)C=C3O
area under concentration-response curve [1]: 502 | area under concentration-response curve [2]: 554 | area under concentration-response curve [3]: 582

CCOC(=O)c1c(C)n(C)c2ccc(O)cc12
area under concentration-response curve [1]: 536 | area under concentration-response curve [2]: 520 | area under concentration-response curve [3]: 593

C[S+](=O)([O-])OCCCCO[S+](C)(=O)[O-]
area under concentration-response curve [1]: 463 | area under concentration-response curve [2]: 507 | area under concentration-response curve [3]: 514
